Results as given in paper PMC10046961, “High-Throughput Screening Assay for Detecting Drug-Induced Changes in Synchronized Neuronal Oscillations and Potential Seizure Risk Based on Ca^2+ Fluorescence Measurements in Human Induced Pluripotent Stem Cell (hiPSC)-Derived Neuronal 2D and 3D Cultures” (Cells, 2023).
Where two headings read alike, the source gives them in different places.

Experiments:
[1] = tested on: hiPSC-derived neurons co-cultured with human primary astrocytes in 2D; assay: Ca2+ transient oscillation assay (FDSS), 2D co-culture; format: cell-based; details: for effect on peak number / Ca2+ neuronal oscillations, in words: 2D format; for activation at 3.7 µM / activation at 11.11 µM / activation at 33.33 µM / activation at 100 µM / activation at 0.37 µM / activation at 1.11 µM / activation at 3.33 µM / activation at 10 µM: Homo sapiens, 1 h, 60 min
Outline: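 Cultures were 10,000 CW50065 hiPSC excitatory neurons plus 2500 primary human astrocytes per well. Recordings used Cal-520 dye in HBSS/HEPES/glucose at 37 °C, with a 470/540 nm read at 2 Hz. Oscillations were stabilized with 0.04% DMSO, read for 20 min, then read again 60 min after compound addition (final DMSO 0.1%).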

[2] = tested on: hiPSC-derived neurons co-cultured with human primary astrocytes in 3D; assay: Ca2+ transient oscillation assay (FDSS), 3D spheroids; format: cell-based; details: 60 min
Outline: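 Fura-2 fluorescence was read twice for 20 min each: a baseline 10 min after 0.04% DMSO, and again 60 min after compound addition at nominal final concentration. The 3D co-cultures (1:1 hiPSC neurons from a donor and human astrocytes, 8000 each) matured 5 weeks in BrainPhys medium after a 1-week differentiation.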

[3] = ref PharmaPendium, cited from earlier work
[4] = read-out: Area under the curve - 2D Mean
[5] = read-out: Peak amplitude - 2D Mean
[6] = read-out: Peak-to-peak interval - 2D Mean
[7] = Table 1, peak plasma concentration in men, free therapeutic Cmax
[8] = Table 2, highest plasma concentration in humans after the therapeutic dose

With `O=C1NC(=O)C(c2ccccc2)(c2ccccc2)N1` [Phenytoin] the “effect on peak number / Ca2+ neuronal oscillations, in words” value [1] was “significantly reduced peak number”, the activation at 3.7 µM [1, 4] was 33.2% and the activation at 3.7 µM ([1]; read-out: Peak Number—2D Mean) was -33.5%. It also gave an activation at 3.7 µM [1, 5] of 7.3%, an activation at 3.7 µM ([1]; read-out: Peak width - 2D Mean) of 27.2% and an activation at 3.7 µM [1, 6] of 46.3%. For the same molecule, the activation at 11.11 µM [1, 4] was 27.5%, the activation at 11.11 µM ([1]; read-out: Peak Number—2D Mean) was -15.2% and the activation at 11.11 µM [1, 5] was -0.2%. It also gave an activation at 11.11 µM ([1]; read-out: Peak width - 2D Mean) of 31.5%, an activation at 11.11 µM [1, 6] of 22.2% and an activation at 33.33 µM [1, 4] of 15.8%. The activation at 33.33 µM ([1]; read-out: Peak Number—2D Mean) was -51.2%, the activation at 33.33 µM [1, 5] was -3% and the activation at 33.33 µM ([1]; read-out: Peak width - 2D Mean) was 17%. For the same molecule, the activation at 33.33 µM [1, 6] was 89%, the activation at 100 µM [1, 4] was 33.3% and the activation at 100 µM ([1]; read-out: Peak Number—2D Mean) was -27.5%. It also gave an activation at 100 µM [1, 5] of 0.2%, an activation at 100 µM ([1]; read-out: Peak width - 2D Mean) of 34.7% and an activation at 100 µM [1, 6] of 44.5%. For the same molecule, the “Area under the curve - 3D Mean” value ([2]; 3.7 µM) was 132.1 % change from baseline, the “Peak Number—3D Mean” value ([2]; 3.7 µM) was 1.4 % change from baseline and the “Peak amplitude - 3D Mean” value ([2]; 3.7 µM) was 111.5 % change from baseline. The “Peak width - 3D Mean” value ([2]; 3.7 µM) was 7.4 % change from baseline, the “Peak-to-peak interval - 3D Mean” value ([2]; 3.7 µM) was 2.9 % change from baseline and the “Area under the curve - 3D Mean” value ([2]; 11.11 µM) was 177.0 % change from baseline. For the same molecule, the “Peak Number—3D Mean” value ([2]; 11.11 µM) was −11.8 % change from baseline, the “Peak amplitude - 3D Mean” value ([2]; 11.11 µM) was 110.4 % change from baseline and the “Peak width - 3D Mean” value ([2]; 11.11 µM) was 29.4 % change from baseline. The “Peak-to-peak interval - 3D Mean” value ([2]; 11.11 µM) was 8.2 % change from baseline, the “Area under the curve - 3D Mean” value ([2]; 33.33 µM) was 199.3 % change from baseline and the “Peak Number—3D Mean” value ([2]; 33.33 µM) was −14.6 % change from baseline. For the same molecule, the “Peak amplitude - 3D Mean” value ([2]; 33.33 µM) was 91.2 % change from baseline, the “Peak width - 3D Mean” value ([2]; 33.33 µM) was 47.9 % change from baseline and the “Peak-to-peak interval - 3D Mean” value ([2]; 33.33 µM) was 17.7 % change from baseline. For the same molecule, the “Area under the curve - 3D Mean” value ([2]; 100 µM) was 198.2 % change from baseline, the “Peak Number—3D Mean” value ([2]; 100 µM) was −9.9 % change from baseline and the “Peak amplitude - 3D Mean” value ([2]; 100 µM) was 88.4 % change from baseline. For the same molecule, the “Peak width - 3D Mean” value ([2]; 100 µM) was 50.5 % change from baseline, the “Peak-to-peak interval - 3D Mean” value ([2]; 100 µM) was 6.6 % change from baseline and the “Free Cmax” value [3, 7] was 4000 to 15000 nM. For the same molecule, the “Free Cmax” value [3, 8] was 4000 to 15000 nM.
For `CC[C@@H]1C(=O)OC[C@@H]1Cc1cncn1C` [Pilocarpine], the “effect on peak number / Ca2+ neuronal oscillations, in words” value [1] was “significantly increased peak number”, the activation at 0.37 µM [1, 4] was 26.7% and the activation at 0.37 µM ([1]; read-out: Peak Number—2D Mean) was 11.5%. For the same molecule, the activation at 0.37 µM [1, 5] was 9.3%, the activation at 0.37 µM ([1]; read-out: Peak width - 2D Mean) was 19.2% and the activation at 0.37 µM [1, 6] was 1.3%. For the same molecule, the activation at 1.11 µM [1, 4] was 38.8%, the activation at 1.11 µM ([1]; read-out: Peak Number—2D Mean) was 8.3% and the activation at 1.11 µM [1, 5] was 8%. It also gave an activation at 1.11 µM ([1]; read-out: Peak width - 2D Mean) of 35.7%, an activation at 1.11 µM [1, 6] of 5.8% and an activation at 3.33 µM [1, 4] of 26.7%. For the same molecule, the activation at 3.33 µM ([1]; read-out: Peak Number—2D Mean) was 34.3%, the activation at 3.33 µM [1, 5] was 5.8% and the activation at 3.33 µM ([1]; read-out: Peak width - 2D Mean) was 23.2%. For the same molecule, the activation at 3.33 µM [1, 6] was -9.2%, the activation at 10 µM [1, 4] was 22.8% and the activation at 10 µM ([1]; read-out: Peak Number—2D Mean) was -19.2%. It also gave an activation at 10 µM [1, 5] of 3.8%, an activation at 10 µM ([1]; read-out: Peak width - 2D Mean) of 23% and an activation at 10 µM [1, 6] of 29.8%. For the same molecule, the “Area under the curve - 3D Mean” value ([2]; 0.37 µM) was 141.5 % change from baseline, the “Peak Number—3D Mean” value ([2]; 0.37 µM) was 16.7 % change from baseline and the “Peak amplitude - 3D Mean” value ([2]; 0.37 µM) was 115.6 % change from baseline. The “Peak width - 3D Mean” value ([2]; 0.37 µM) was 6.3 % change from baseline, the “Peak-to-peak interval - 3D Mean” value ([2]; 0.37 µM) was −10.1 % change from baseline and the “Area under the curve - 3D Mean” value ([2]; 1.11 µM) was 173.5 % change from baseline. The “Peak Number—3D Mean” value ([2]; 1.11 µM) was 23.9 % change from baseline, the “Peak amplitude - 3D Mean” value ([2]; 1.11 µM) was 145.8 % change from baseline and the “Peak width - 3D Mean” value ([2]; 1.11 µM) was 6.7 % change from baseline. The “Peak-to-peak interval - 3D Mean” value ([2]; 1.11 µM) was −10.0 % change from baseline, the “Area under the curve - 3D Mean” value ([2]; 3.33 µM) was 168.7 % change from baseline and the “Peak Number—3D Mean” value ([2]; 3.33 µM) was 12.9 % change from baseline. For the same molecule, the “Peak amplitude - 3D Mean” value ([2]; 3.33 µM) was 135.3 % change from baseline, the “Peak width - 3D Mean” value ([2]; 3.33 µM) was 10.2 % change from baseline and the “Peak-to-peak interval - 3D Mean” value ([2]; 3.33 µM) was −3.3 % change from baseline. The “Area under the curve - 3D Mean” value ([2]; 10 µM) was 145.2 % change from baseline, the “Peak Number—3D Mean” value ([2]; 10 µM) was 23.1 % change from baseline and the “Peak amplitude - 3D Mean” value ([2]; 10 µM) was 122.5 % change from baseline. For the same molecule, the “Peak width - 3D Mean” value ([2]; 10 µM) was 7.0 % change from baseline, the “Peak-to-peak interval - 3D Mean” value ([2]; 10 µM) was −12.6 % change from baseline and the “Free Cmax” value [3, 7] was 30 to 550 nM. For the same molecule, the “Free Cmax” value [3, 8] was 30 to 550 nM.
With `CCN(CC)CCCC(C)Nc1c2ccc(Cl)cc2nc2ccc(OC)cc12` (centres unmarked) [Quinacrine, quinacrine] the activation at 0.37 µM [1, 4] was 5.3%, the activation at 0.37 µM ([1]; read-out: Peak Number—2D Mean) was -2.7% and the activation at 0.37 µM [1, 5] was 1.8%. It also gave an activation at 0.37 µM ([1]; read-out: Peak width - 2D Mean) of 2.8%, an activation at 0.37 µM [1, 6] of 7% and an activation at 1.11 µM [1, 4] of 11.2%. The activation at 1.11 µM ([1]; read-out: Peak Number—2D Mean) was -2.8%, the activation at 1.11 µM [1, 5] was 1.2% and the activation at 1.11 µM ([1]; read-out: Peak width - 2D Mean) was 10.7%. For the same molecule, the activation at 1.11 µM [1, 6] was -4%, the activation at 3.33 µM [1, 4] was -13.8% and the activation at 3.33 µM ([1]; read-out: Peak Number—2D Mean) was -11%. For the same molecule, the activation at 3.33 µM [1, 5] was -7.8%, the activation at 3.33 µM ([1]; read-out: Peak width - 2D Mean) was -12.8% and the activation at 3.33 µM [1, 6] was 40.2%. For the same molecule, the activation at 10 µM [1, 4] was -84.7%, the activation at 10 µM ([1]; read-out: Peak Number—2D Mean) was -92.2% and the activation at 10 µM [1, 5] was -78%. The activation at 10 µM ([1]; read-out: Peak width - 2D Mean) was -84.3%, the activation at 10 µM [1, 6] was -18.2% and the “Area under the curve - 3D Mean” value ([2]; 0.37 µM) was 123.5 % change from baseline. For the same molecule, the “Peak Number—3D Mean” value ([2]; 0.37 µM) was 3.2 % change from baseline, the “Peak amplitude - 3D Mean” value ([2]; 0.37 µM) was 113.4 % change from baseline and the “Peak width - 3D Mean” value ([2]; 0.37 µM) was −1.8 % change from baseline. For the same molecule, the “Peak-to-peak interval - 3D Mean” value ([2]; 0.37 µM) was −0.7 % change from baseline, the “Area under the curve - 3D Mean” value ([2]; 1.11 µM) was 149.1 % change from baseline and the “Peak Number—3D Mean” value ([2]; 1.11 µM) was 0.4 % change from baseline. The “Peak amplitude - 3D Mean” value ([2]; 1.11 µM) was 128.3 % change from baseline, the “Peak width - 3D Mean” value ([2]; 1.11 µM) was 4.2 % change from baseline and the “Peak-to-peak interval - 3D Mean” value ([2]; 1.11 µM) was 6.2 % change from baseline. For the same molecule, the “Area under the curve - 3D Mean” value ([2]; 3.33 µM) was 139.1 % change from baseline, the “Peak Number—3D Mean” value ([2]; 3.33 µM) was 14.1 % change from baseline and the “Peak amplitude - 3D Mean” value ([2]; 3.33 µM) was 108.9 % change from baseline. For the same molecule, the “Peak width - 3D Mean” value ([2]; 3.33 µM) was 10.6 % change from baseline, the “Peak-to-peak interval - 3D Mean” value ([2]; 3.33 µM) was −5.5 % change from baseline and the “Area under the curve - 3D Mean” value ([2]; 10 µM) was 128.2 % change from baseline. For the same molecule, the “Peak Number—3D Mean” value ([2]; 10 µM) was 12.5 % change from baseline, the “Peak amplitude - 3D Mean” value ([2]; 10 µM) was 108.3 % change from baseline and the “Peak width - 3D Mean” value ([2]; 10 µM) was 9.5 % change from baseline. For the same molecule, the “Peak-to-peak interval - 3D Mean” value ([2]; 10 µM) was −9.8 % change from baseline, the “Free Cmax” value [3, 7] was 50 nM and the “Free Cmax” value [3, 8] was 50 nM.
